US20150352108A1, “AMINO-PYRIMIDINE COMPOUNDS AS INHIBITORS OF TBK1 AND/OR IKK EPSILON” (Alzheimer's Institute of America, priority 2009, published 2015)
pIC50: −log10 of the molar value.

biological target: T1, IKKε (Homo sapiens, UniProt Q14164); assay: In-vitro IKKε kinase assay ([γ33]ATP filter-plate); format: biochemical; conditions: text bins; read-out: IC50 for inhibition of the kinase activity of IKKε
T1 construct: His-tag; made in house; host or cells: Sf9 insect cells
T1 sequence (Q14164 1-716): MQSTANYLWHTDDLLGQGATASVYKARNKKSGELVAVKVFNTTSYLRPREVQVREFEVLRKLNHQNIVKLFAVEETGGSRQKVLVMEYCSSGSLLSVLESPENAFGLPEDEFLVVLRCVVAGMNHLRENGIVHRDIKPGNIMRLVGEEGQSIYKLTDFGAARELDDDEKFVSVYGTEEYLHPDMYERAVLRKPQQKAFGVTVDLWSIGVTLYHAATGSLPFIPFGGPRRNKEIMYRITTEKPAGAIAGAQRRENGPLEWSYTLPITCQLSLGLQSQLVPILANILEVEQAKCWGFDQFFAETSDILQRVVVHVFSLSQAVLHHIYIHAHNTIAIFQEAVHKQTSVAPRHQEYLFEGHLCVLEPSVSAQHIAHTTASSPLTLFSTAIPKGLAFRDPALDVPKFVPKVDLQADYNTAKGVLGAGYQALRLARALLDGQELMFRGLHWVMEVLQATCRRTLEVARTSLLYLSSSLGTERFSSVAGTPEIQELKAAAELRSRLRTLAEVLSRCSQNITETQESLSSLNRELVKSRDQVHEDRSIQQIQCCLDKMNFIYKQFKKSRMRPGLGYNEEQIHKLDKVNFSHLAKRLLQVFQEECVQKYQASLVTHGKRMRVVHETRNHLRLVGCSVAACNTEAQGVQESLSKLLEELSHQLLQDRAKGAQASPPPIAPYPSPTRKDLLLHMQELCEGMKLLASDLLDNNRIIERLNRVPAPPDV
Description: IKKε enzyme was produced as a His-tag fusion in Sf9 cells and used at a final concentration of […]. TBK1 enzyme was produced as a His-tag fusion in Sf9 cells and used at a final concentration of 0.1 μg/ml. Kinase reactions were carried out in reaction buffer using myelin basic protein (Millipore, Ballerica, Mass.) or casein (Sigma, St. Louis, Mo.) as substrate at an ATP concentration equal to twice the Km,ATP value for each enzyme, corresponding to 32 μM ATP for IKKε and 60 μM ATP for TBK1, in the presence of 0.3 μCi [γ^33]ATP (PerkinElmer, Waltham, Mass.). Final enzyme concentrations were 0.1 or 0.015 μg/ml (IKKε) and 0.1 or 0.02 μg/ml (TBK1), representing “normal” and “sensitized” assay conditions respectively. Test compounds (or DMSO solvent as a control) were added prior to initiation of the reactions. Reactions were terminated after 30-45 minutes by adding 3% phosphoric acid. Terminated reactions were transferred to P-81 cellulose phosphate filterplates (Whatman, Inc., Piscataway, N.J.) and washed with 1% phosphoric acid on a vacuum apparatus. After air drying, scintillant (PerkinElmer, Waltham, Mass.) was added and the plates were read on a PerkinElmer TopCount NXT instrument. Counts were normalized to DMSO controls after background subtraction.

First: N#Cc1cc(Cl)cc(-c2ccnc(Nc3ccc(N4CCOCC4)cc3)n2)c1 [Example 50, 3-Chloro-5-(2-{[4-(morpholin-4-yl)phenyl]amino}pyrimidin-4-yl)benzonitrile]
Second: CC(Oc1ccc(-c2ccnc(Nc3ccc(N4CCOCC4)cc3)n2)cc1C#N)C(=O)O (stereo not drawn) [Example 265, 2-[2-Cyano-4-(2-{[4-(morpholin-4-yl)phenyl]amino}pyrimidin-4-yl)phenoxy]propanoic acid]
The pIC50 of the first is higher: 7.30 to 8.30 for the first, 6.30 to 7.30 for the second.

First: N#Cc1cc(-c2ccnc(Nc3ccc(N4CCOCC4)cc3)n2)ccc1NCc1cccnc1 [Example 200, 5-(2-{[4-(Morpholin-4-yl)phenyl]amino}pyrimidin-4-yl)-2-[(pyridin-3-ylmethyl)amino] benzonitrile]
Second: N#Cc1cc(-c2ccnc(Nc3ccc(N4CCOCC4)cc3)n2)ccc1NC(=O)Cc1ccccc1 [compound 435, N-[2-cyano-4-(2-{[4-(morpholin-4-yl)phenyl]amino}pyrimidin-4-yl)phenyl]-2-phenylacetamide]
The pIC50 of the first is higher: 7.30 to 8.30 for the first, 6.30 to 7.30 for the second.

`CCN(CC)CCc1ccc(Nc2nccc(-c3ccc(NC(=O)C(C)C)c(C#N)c3)n2)cc1` [compound 454, N-{2-cyano-4-[2-({4-[2-(diethylamino)ethyl]phenyl}amino)pyrimidin-4-yl]phenyl}-2-methylpropanamide] and `CC(C)NCCc1ccc(Nc2nccc(-c3ccc(NC(=O)C(C)C)c(C#N)c3)n2)cc1` [compound 462, N-{2-cyano-4-[2-({4-[2-(propan-2-ylamino)ethyl]phenyl}amino)pyrimidin-4-yl]phenyl}-2-methylpropanamide] fall in the same range of pIC50: 7.30 to 8.30 for the first, 7.30 to 8.30 for the second.

First: CCC(C)(C)C(=O)Nc1ccc(-c2ccnc(Nc3ccc(N4CCOCC4)cc3)n2)cc1C#N [Example 77, N-[2-cyano-4-(2-{[4-(morpholin-4-yl)phenyl]amino}pyrimidin-4-yl)phenyl]-2,2-dimethylbutanamide]
Second: CC(C)(C)C(=O)Nc1ccc(-c2ccnc(Nc3ccc(N4CCOCC4)cc3)n2)cc1C#N [Example 196, N-[2-cyano-4-(2-{[4-(morpholin-4-yl)phenyl]amino}pyrimidin-4-yl)phenyl]-2,2-dimethylpropanamide]
The pIC50 of the first is lower: 6.30 to 7.30 for the first, 7.30 to 8.30 for the second. The second is the more potent here.

First: C[C@H](O)C(=O)NCCOc1ccc(-c2ccnc(Nc3ccc(N4CCOCC4)cc3)n2)cc1C#N [Example 250, (2S)-N-{2-[2-cyano-4-(2-{[4-(morpholin-4-yl)phenyl]amino}pyrimidin-4-yl)phenoxy]ethyl}-2-hydroxypropanamide]
Second: CC(=O)N1CCC(COc2ccc(-c3ccnc(Nc4ccc(N5CCOCC5)cc4)n3)cc2C#N)C1 (stereo not drawn) [compound 469, 2-[(1-acetylpyrrolidin-3-yl)methoxy]-5-(2-{[4-(morpholin-4-yl)phenyl]amino}pyrimidin-4-yl)benzonitrile]
The pIC50 of the first is lower: 6.30 to 7.30 for the first, 7.30 to 8.30 for the second. The second is the more potent here.

`CC(=O)NS(=O)(=O)c1ccc(Nc2nccc(-c3ccc(OC4CCOCC4)c(C#N)c3)n2)cc1` [compound 630] and `CC(C)(O)CNC(=O)Nc1cccc(Nc2nccc(-c3ccc(OC4CCOCC4)c(C#N)c3)n2)c1` [compound 649, 1-[3-({4-[3-Cyano-4-(tetrahydro-2H-pyran-4-yloxy)phenyl]pyrimidin-2-yl}amino)phenyl]-3-(2-hydroxy-2-methylpropyl)urea] cannot be ordered by pIC50: over 8.30 for the first, over 8.30 for the second.

First: N#Cc1cc(-c2ccnc(Nc3ccc(CN4CCN(CCO)CC4)cc3)n2)ccc1O[C@@H]1CCN(C(=O)CO)C1 [compound 636, 2-{[(3R)-1-(Hydroxyacetyl)pyrrolidin-3-yl]oxy}-5-{2-[(4-{[4-(2-hydroxyethyl)piperazin-1-yl]methyl}phenyl)amino]pyrimidin-4-yl}benzonitrile]
Second: N#Cc1cc(-c2ccnc(Nc3ccc(F)c(F)c3)n2)ccc1O[C@@H]1CCN(C(=O)CO)C1 [compound 582, 5-{2-[(3,4-Difluorophenyl)amino]pyrimidin-4-yl}-2-{[(3R)-1-(hydroxyacetyl)pyrrolidin-3-yl]oxy}benzonitrile]
The pIC50 of the first is higher: over 8.30 for the first, 7.30 to 8.30 for the second.

First: COc1cc(Nc2nccc(-c3ccc(OCC(C)C)c(C#N)c3)n2)ccc1C(=O)N1CC(OC)C1 [compound 587, 5-[2-({3-Methoxy-4-[(3-methoxyazetidin-1-yl)carbonyl]phenyl}amino)pyrimidin-4-yl]-2-(2-methylpropoxy) benzonitrile]
Second: COc1ccc(Nc2nccc(-c3ccc(Cl)c(C#N)c3)n2)cc1OC [Example 182, 2-Chloro-5-{2-[(3,4-dimethoxyphenyl)amino]pyrimidin-4-yl}benzonitrile]
The pIC50 of the first is higher: over 8.30 for the first, 7.30 to 8.30 for the second.

`COc1cc(Nc2nccc(-c3ccc(OC4CCOCC4)c(C#N)c3)n2)ccc1N1CCC(N2CCN(C)CC2)CC1` [compound 514, 5-[2-({3-methoxy-4-[4-(4-methylpiperazin-1-yl)piperidin-1-yl]phenyl}amino)pyrimidin-4-yl]-2-(tetrahydro-2H-pyran-4-yloxy)benzonitrile] and `CN(C)CC(=O)N1CCC(Oc2ccc(-c3ccnc(Nc4ccc(N5CCOCC5)cc4)n3)cc2C#N)CC1` [Example 160, 2-{[1-(N,N-dimethylglycyl)piperidin-4-yl]oxy}-5-(2-{[4-(morpholin-4-yl)phenyl]amino}pyrimidin-4-yl)benzonitrile] fall in the same range of pIC50: 6.30 to 7.30 for the first, 6.30 to 7.30 for the second.

`COc1ccc(Nc2nccc(-c3cc(C#N)cc(OCc4ccccc4)c3)n2)cc1OC` [Example 145, 3-(Benzyloxy)-5-{2-[(3,4-dimethoxyphenyl)amino]pyrimidin-4-yl}benzonitrile] and `COc1ccc(Nc2nccc(-c3ccc(OC(C)c4ccccc4)c(C#N)c3)n2)cc1OC` (stereo not drawn) [Example 163] fall in the same range of pIC50: 6.30 to 7.30 for the first, 6.30 to 7.30 for the second.

First: COc1ccc(-c2ccnc(Nc3ccc(NC(=O)NCCO)cc3)n2)cc1C#N [Example 9, 1-(4-{[4-(3-Cyano-4-methoxyphenyl)pyrimidin-2-yl]amino}phenyl)-3-(2-hydroxyethyl)urea]
Second: COc1cc(NC(C)=O)cc(Nc2nccc(-c3ccc(OC)c(C#N)c3)n2)c1 [Example 279, N-(3-{[4-(3-Cyano-4-methoxyphenyl)pyrimidin-2-yl]amino}-5-methoxyphenyl) acetamide]
The pIC50 of the first is lower: 6.30 to 7.30 for the first, 7.30 to 8.30 for the second. The second is the more potent here.

`COc1ccc(Nc2nccc(-c3cccc(C#N)c3)n2)cc1F` [Example 66, 3-{2-[(3-Fluoro-4-methoxyphenyl)amino]pyrimidin-4-yl}benzonitrile] and `CC(C)(C)c1ccc(Nc2nccc(-c3cccc(C#N)c3)n2)cc1` [Example 282, 3-{2-[(4-tert-Butylphenyl)amino]pyrimidin-4-yl}benzonitrile] fall in the same range of pIC50: 6.30 to 7.30 for the first, 6.30 to 7.30 for the second.

First: COc1ccc(COc2ccc(-c3ccnc(Nc4ccc(N5CCOCC5)cc4)n3)cc2C#N)cc1 [Example 40, 2-[(4-Methoxybenzyl)oxy]-5-(2-{[4-(morpholin-4-yl)phenyl]amino}pyrimidin-4-yl)benzonitrile]
Second: N#Cc1cc(-c2ccnc(Nc3ccc(N4CCOCC4)cc3)n2)ccc1OC1CCN(C(=O)[C@H](O)C(F)(F)F)CC1 [Example 57, 5-(2-{[4-(Morpholin-4-yl)phenyl]amino}pyrimidin-4-yl)-2-({1-[(2S)-3,3,3-trifluoro-2-hydroxypropanoyl]piperidin-4-yl}oxy)benzonitrile]
The pIC50 of the first is lower: 6.30 to 7.30 for the first, 7.30 to 8.30 for the second.

`N#Cc1cccc(-c2nc(Nc3ccc(N4CCOCC4)cc3)nc3[nH]cnc23)c1` [compound 562, 3-(2-{[4-(Morpholin-4-yl)phenyl]amino}-3H-purain-6-yl)benzonitrile] and `CN1CCN(CCOc2ccc(Nc3nccc(-c4cccc(C#N)c4)n3)cc2)CC1` [Example 292, 3-[2-({4-[2-(4-Methylpiperazin-1-yl)ethoxy]phenyl}amino)pyrimidin-4-yl]benzonitrile] fall in the same range of pIC50: 6.30 to 7.30 for the first, 6.30 to 7.30 for the second.

`CCNS(=O)(=O)c1ccc(Nc2nccc(-c3ccc(NC(=O)C(C)C)c(C#N)c3)n2)cc1` [compound 449, N-[2-cyano-4-(2-{[4-(ethylsulfamoyl)phenyl]amino}pyrimidin-4-yl)phenyl]-2-methylpropanamide] and `CC(C)C(=O)Nc1ccc(-c2ccnc(Nc3ccc(C(C)C(=O)N4CCOCC4)cc3)n2)cc1C#N` (stereo not drawn) [compound 453, N-{2-cyano-4-[2-({4-[1-(morpholin-4-yl)-1-oxopropoan-2-yl]phenyl}amino)pyrimidin-4-yl]phenyl}-2-methylpropanamide] fall in the same range of pIC50: 7.30 to 8.30 for the first, 7.30 to 8.30 for the second.
